Assay results from patent publication US20060009478A1, “Methods for the treatment of back pain” (priority 2003, published 2006).

Tested on: patients with moderate to severe chronic low back pain
Assay: Short Opiate Withdrawal Scale (SOWS), low back pain study
[1] = patients with <4 weeks of dosing, ITT, change from baseline to day 4
[2] = patients with <4 weeks of dosing, ITT, last dose date (baseline)
[3] = patients with <4 weeks of dosing, ITT, opioid withdrawal monitoring day 1
[4] = patients with <4 weeks of dosing, ITT, opioid withdrawal monitoring day 2
[5] = patients with <4 weeks of dosing, ITT, opioid withdrawal monitoring day 3
[6] = patients with <4 weeks of dosing, ITT, opioid withdrawal monitoring day 4
[7] = patients with ≧4 weeks of dosing, ITT, change from baseline to day 1
[8] = patients with ≧4 weeks of dosing, ITT, change from baseline to day 2
[9] = patients with ≧4 weeks of dosing, ITT, change from baseline to day 3
[10] = patients with ≧4 weeks of dosing, ITT, change from baseline to day 4
[11] = patients with ≧4 weeks of dosing, ITT, last dose date (baseline)
[12] = patients with ≧4 weeks of dosing, ITT, opioid withdrawal monitoring day 1
[13] = patients with ≧4 weeks of dosing, ITT, opioid withdrawal monitoring day 2
[14] = patients with ≧4 weeks of dosing, ITT, opioid withdrawal monitoring day 3
[15] = patients with ≧4 weeks of dosing, ITT, opioid withdrawal monitoring day 4

COc1ccc2c3c1O[C@H]1C(=O)CC[C@@]4(O)[C@@H](C2)N(C)CC[C@]314 [OXY QID, oxycodone]
SOWS change from baseline, MIN (patients with <4 weeks of dosing, ITT, change from baseline to day 3): −0.5
SOWS change from baseline, MAX [1]: 0.8
SOWS change from baseline, MEAN(SD) [1]: 0.2 (0.41)
SOWS change from baseline, MEDIAN [1]: 0.1
SOWS change from baseline, MIN [1]: −0.1
SOWS score, MAX [2]: 0.7
SOWS score, MEAN(SD) [2]: 0.3 (0.29)
SOWS score, MEDIAN [2]: 0.2
SOWS score, MIN [2]: 0.0
SOWS score, MAX [3]: 0.9
SOWS score, MEAN(SD) [3]: 0.2 (0.27)
SOWS score, MEDIAN [3]: 0.1
SOWS score, MIN [3]: 0.0
SOWS score, MAX [4]: 1.3
SOWS score, MEAN(SD) [4]: 0.2 (0.38)
SOWS score, MEDIAN [4]: 0.0
SOWS score, MIN [4]: 0.0
SOWS score, MAX [5]: 1.3
SOWS score, MEAN(SD) [5]: 0.2 (0.39)
SOWS score, MEDIAN [5]: 0.0
SOWS score, MIN [5]: 0.0
SOWS score, MAX [6]: 0.8
SOWS score, MEAN(SD) [6]: 0.1 (0.26)
SOWS score, MEDIAN [6]: 0.0
SOWS score, MIN [6]: 0.0
SOWS change from baseline, MAXIMUM [7]: 1.9
SOWS change from baseline, MEAN(SD) [7]: 0.3 (0.48)
SOWS change from baseline, MEDIAN [7]: 0.2
SOWS change from baseline, MINIMUM [7]: −0.7
SOWS change from baseline, MAXIMUM [8]: 2.4
SOWS change from baseline, MEAN(SD) [8]: 0.3 (0.52)
SOWS change from baseline, MEDIAN [8]: 0.2
SOWS change from baseline, MINIMUM [8]: −1.1
SOWS change from baseline, MAXIMUM [9]: 1.7
SOWS change from baseline, MEAN(SD) [9]: 0.3 (0.48)
SOWS change from baseline, MEDIAN [9]: 0.2
SOWS change from baseline, MINIMUM [9]: −1.1
SOWS change from baseline, MAXIMUM [10]: 2.7
SOWS change from baseline, MEAN(SD) [10]: 0.2 (0.55)
SOWS change from baseline, MEDIAN [10]: 0.1
SOWS change from baseline, MINIMUM [10]: −1.1
SOWS score, MAXIMUM [11]: 1.5
SOWS score, MEAN(SD) [11]: 0.3 (0.37)
SOWS score, MEDIAN [11]: 0.2
SOWS score, MINIMUM [11]: 0.0
SOWS score, MAXIMUM [12]: 2.5
SOWS score, MEAN(SD) [12]: 0.5 (0.53)
SOWS score, MEDIAN [12]: 0.4
SOWS score, MINIMUM [12]: 0.0
SOWS score, MAXIMUM [13]: 2.5
SOWS score, MEAN(SD) [13]: 0.6 (0.54)
SOWS score, MEDIAN [13]: 0.4
SOWS score, MINIMUM [13]: 0.0
SOWS score, MAXIMUM [14]: 2.2
SOWS score, MEAN(SD) [14]: 0.6 (0.53)
SOWS score, MEDIAN [14]: 0.4
SOWS score, MINIMUM [14]: 0.0
SOWS score, MAXIMUM [15]: 2.7
SOWS score, MEAN(SD) [15]: 0.5 (0.55)
SOWS score, MEDIAN [15]: 0.3
SOWS score, MINIMUM [15]: 0.0
Mean SOWS score in the first 24 hours following drug discontinuation (patients with ≧4 weeks of dosing, p<0.01): 2.6
